Source: the supplement of paper PMC10307832

What was measured:
Assay in all cases: relative viability (nuclei count vs DMSO), 5 days (fraction); higher = more cells survive
[1] = compound: C1COCCN1C2=NC(=NC3=C2OC4=C3C=CC=N4)C5=CC(=CC=C5)NC(=O)C6=CN=C(C=C6)N + CC(=O)Nc1cccc(-n2c(=O)n(C3CC3)c(=O)c3c(Nc4ccc(I)cc4F)n(C)c(=O)c(C)c32)c1 [Trametinib] (partner 0.02 µM)
Outline: (§1)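 Lung cancer cell lines, seeded in 1536-well plates, were treated the following day by pin tool with a single drug or with five library-drug doses (not always all listed) in √10 steps on top of a fixed anchor-drug dose. Cells were fixed and nuclei stained in one step after 5 days, and nuclei were counted. Relative viability is the nuclei count for treated wells divided by that for vehicle wells, reported as medians of duplicate plates.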

[2] = compound: C1COCCN1C2=NC(=NC3=C2OC4=C3C=CC=N4)C5=CC(=CC=C5)NC(=O)C6=CN=C(C=C6)N + COc1cccc2cc(-c3nc([C@H]4CC[C@H](C(=O)O)CC4)n4ncnc(N)c34)[nH]c12 [OSI-027] (partner 0.5 µM)
Outline: as §1

Entinostat + Linsitinib = compound: Nc1ccccc1NC(=O)c1ccc(CNC(=O)OCc2cccnc2)cc1 [Entinostat] + C[C@]1(O)C[C@@H](c2nc(-c3ccc4ccc(-c5ccccc5)nc4c3)c3c(N)nccn32)C1 [Linsitinib] (partner 1 µM)
Outline: as §1

Entinostat + Tozasertib = compound: Nc1ccccc1NC(=O)c1ccc(CNC(=O)OCc2cccnc2)cc1 [Entinostat] + Cc1cc(Nc2cc(N3CCN(C)CC3)nc(Sc3ccc(NC(=O)C4CC4)cc3)n2)n[nH]1 [Tozasertib] (partner 0.1 µM)
Outline: as §1

NCI-H1651
relative viability ([1]; first compound 0.02 µM): 0.842
relative viability ([1]; first compound 0.06325 µM): 0.867
relative viability ([1]; first compound 0.2 µM): 0.836
relative viability ([1]; first compound 0.6325 µM): 0.818
relative viability ([1]; first compound 2 µM): 0.731
relative viability ([2]; first compound 0.02 µM): 0.643
relative viability ([2]; first compound 0.06325 µM): 0.812
relative viability ([2]; first compound 0.2 µM): 0.703
relative viability ([2]; first compound 0.6325 µM): 0.617
relative viability ([2]; first compound 2 µM): 0.472
relative viability (Entinostat + Linsitinib; first compound 0.02 µM): 0.952
relative viability (Entinostat + Linsitinib; first compound 0.06325 µM): 0.976
relative viability (Entinostat + Linsitinib; first compound 0.2 µM): 0.959
relative viability (Entinostat + Linsitinib; first compound 0.6325 µM): 0.827
relative viability (Entinostat + Linsitinib; first compound 2 µM): 0.365
relative viability (Entinostat + Tozasertib; first compound 0.02 µM): 0.619
relative viability (Entinostat + Tozasertib; first compound 0.06325 µM): 0.705
relative viability (Entinostat + Tozasertib; first compound 0.2 µM): 0.584
relative viability (Entinostat + Tozasertib; first compound 0.6325 µM): 0.333
relative viability (Entinostat + Tozasertib; first compound 2 µM): 0.237

NCI-H1666
relative viability ([1]; first compound 0.02 µM): 1.04
relative viability ([1]; first compound 0.06325 µM): 0.865
relative viability ([1]; first compound 0.2 µM): 0.753
relative viability ([1]; first compound 0.6325 µM): 0.751
relative viability ([1]; first compound 2 µM): 0.694
relative viability ([2]; first compound 0.02 µM): 0.949
relative viability ([2]; first compound 0.06325 µM): 0.816
relative viability ([2]; first compound 0.2 µM): 0.79
relative viability ([2]; first compound 0.6325 µM): 0.777
relative viability ([2]; first compound 2 µM): 0.546
relative viability (Entinostat + Linsitinib; first compound 0.02 µM): 0.874
relative viability (Entinostat + Linsitinib; first compound 0.06325 µM): 0.783
relative viability (Entinostat + Linsitinib; first compound 0.2 µM): 0.476
relative viability (Entinostat + Linsitinib; first compound 0.6325 µM): 0.498
relative viability (Entinostat + Linsitinib; first compound 2 µM): 0.313
relative viability (Entinostat + Tozasertib; first compound 0.02 µM): 0.562
relative viability (Entinostat + Tozasertib; first compound 0.06325 µM): 0.535
relative viability (Entinostat + Tozasertib; first compound 0.2 µM): 0.471
relative viability (Entinostat + Tozasertib; first compound 0.6325 µM): 0.405
relative viability (Entinostat + Tozasertib; first compound 2 µM): 0.346

NCI-H1734
relative viability ([1]; first compound 0.02 µM): 0.657
relative viability ([1]; first compound 0.06325 µM): 0.816
relative viability ([1]; first compound 0.2 µM): 0.67
relative viability ([1]; first compound 0.6325 µM): 0.635
relative viability ([1]; first compound 2 µM): 0.512
relative viability ([2]; first compound 0.02 µM): 0.719
relative viability ([2]; first compound 0.06325 µM): 0.638
relative viability ([2]; first compound 0.2 µM): 0.576
relative viability ([2]; first compound 0.6325 µM): 0.542
relative viability ([2]; first compound 2 µM): 0.417
relative viability (Entinostat + Linsitinib; first compound 0.02 µM): 0.908
relative viability (Entinostat + Linsitinib; first compound 0.06325 µM): 0.985
relative viability (Entinostat + Linsitinib; first compound 0.2 µM): 0.987
relative viability (Entinostat + Linsitinib; first compound 0.6325 µM): 0.916
relative viability (Entinostat + Linsitinib; first compound 2 µM): 0.817
relative viability (Entinostat + Tozasertib; first compound 0.02 µM): 0.25
relative viability (Entinostat + Tozasertib; first compound 0.06325 µM): 0.296
relative viability (Entinostat + Tozasertib; first compound 0.2 µM): 0.267
relative viability (Entinostat + Tozasertib; first compound 0.6325 µM): 0.215
relative viability (Entinostat + Tozasertib; first compound 2 µM): 0.22

NCI-H1755
relative viability ([1]; first compound 0.02 µM): 0.741
relative viability ([1]; first compound 0.06325 µM): 0.827
relative viability ([1]; first compound 0.2 µM): 0.741
relative viability ([1]; first compound 0.6325 µM): 0.754
relative viability ([1]; first compound 2 µM): 0.617
relative viability ([2]; first compound 0.02 µM): 0.797
relative viability ([2]; first compound 0.06325 µM): 0.738
relative viability ([2]; first compound 0.2 µM): 0.797
relative viability ([2]; first compound 0.6325 µM): 0.622
relative viability ([2]; first compound 2 µM): 0.558
relative viability (Entinostat + Linsitinib; first compound 0.02 µM): 0.984
relative viability (Entinostat + Linsitinib; first compound 0.06325 µM): 0.988
relative viability (Entinostat + Linsitinib; first compound 0.2 µM): 0.866
relative viability (Entinostat + Linsitinib; first compound 0.6325 µM): 0.625
relative viability (Entinostat + Linsitinib; first compound 2 µM): 0.412
relative viability (Entinostat + Tozasertib; first compound 0.02 µM): 0.603
relative viability (Entinostat + Tozasertib; first compound 0.06325 µM): 0.505
relative viability (Entinostat + Tozasertib; first compound 0.2 µM): 0.464
relative viability (Entinostat + Tozasertib; first compound 0.6325 µM): 0.361
relative viability (Entinostat + Tozasertib; first compound 2 µM): 0.357

NCI-H1793
relative viability ([1]; first compound 0.02 µM): 0.55
relative viability ([1]; first compound 0.06325 µM): 0.371
relative viability ([1]; first compound 0.2 µM): 0.366
relative viability ([1]; first compound 0.6325 µM): 0.46
relative viability ([1]; first compound 2 µM): 0.355
relative viability ([2]; first compound 0.02 µM): 0.253
relative viability ([2]; first compound 0.06325 µM): 0.301
relative viability ([2]; first compound 0.2 µM): 0.251
relative viability ([2]; first compound 0.6325 µM): 0.177
relative viability ([2]; first compound 2 µM): 0.233
relative viability (Entinostat + Linsitinib; first compound 0.02 µM): 0.964
relative viability (Entinostat + Linsitinib; first compound 0.06325 µM): 0.841
relative viability (Entinostat + Linsitinib; first compound 0.2 µM): 0.834
relative viability (Entinostat + Linsitinib; first compound 0.6325 µM): 0.698
relative viability (Entinostat + Linsitinib; first compound 2 µM): 0.364
relative viability (Entinostat + Tozasertib; first compound 0.02 µM): 0.309
relative viability (Entinostat + Tozasertib; first compound 0.06325 µM): 0.308
relative viability (Entinostat + Tozasertib; first compound 0.2 µM): 0.284
relative viability (Entinostat + Tozasertib; first compound 0.6325 µM): 0.205
relative viability (Entinostat + Tozasertib; first compound 2 µM): 0.175

NCI-H1915
relative viability ([1]; first compound 0.02 µM): 0.3
relative viability ([1]; first compound 0.06325 µM): 0.313
relative viability ([1]; first compound 0.2 µM): 0.298
relative viability ([1]; first compound 0.6325 µM): 0.218
relative viability ([1]; first compound 2 µM): 0.281
relative viability ([2]; first compound 0.02 µM): 0.639
relative viability ([2]; first compound 0.06325 µM): 0.663
relative viability ([2]; first compound 0.2 µM): 0.647
relative viability ([2]; first compound 0.6325 µM): 0.599
relative viability ([2]; first compound 2 µM): 0.5
relative viability (Entinostat + Linsitinib; first compound 0.02 µM): 1.1
relative viability (Entinostat + Linsitinib; first compound 0.06325 µM): 1.04
relative viability (Entinostat + Linsitinib; first compound 0.2 µM): 0.966
relative viability (Entinostat + Linsitinib; first compound 0.6325 µM): 0.912
relative viability (Entinostat + Linsitinib; first compound 2 µM): 0.459
relative viability (Entinostat + Tozasertib; first compound 0.02 µM): 0.446
relative viability (Entinostat + Tozasertib; first compound 0.06325 µM): 0.385
relative viability (Entinostat + Tozasertib; first compound 0.2 µM): 0.338
relative viability (Entinostat + Tozasertib; first compound 0.6325 µM): 0.267
relative viability (Entinostat + Tozasertib; first compound 2 µM): 0.212

NCI-H1944
relative viability ([1]; first compound 0.02 µM): 0.378
relative viability ([1]; first compound 0.06325 µM): 0.453
relative viability ([1]; first compound 0.2 µM): 0.451
relative viability ([1]; first compound 0.6325 µM): 0.382
relative viability ([1]; first compound 2 µM): 0.377
relative viability ([2]; first compound 0.02 µM): 0.401
relative viability ([2]; first compound 0.06325 µM): 0.439
relative viability ([2]; first compound 0.2 µM): 0.366
relative viability ([2]; first compound 0.6325 µM): 0.345
relative viability ([2]; first compound 2 µM): 0.272
relative viability (Entinostat + Linsitinib; first compound 0.02 µM): 1.12
relative viability (Entinostat + Linsitinib; first compound 0.06325 µM): 1.19
relative viability (Entinostat + Linsitinib; first compound 0.2 µM): 1.23
relative viability (Entinostat + Linsitinib; first compound 0.6325 µM): 0.554
relative viability (Entinostat + Linsitinib; first compound 2 µM): 0.357
relative viability (Entinostat + Tozasertib; first compound 0.02 µM): 0.224
relative viability (Entinostat + Tozasertib; first compound 0.06325 µM): 0.215
relative viability (Entinostat + Tozasertib; first compound 0.2 µM): 0.204
relative viability (Entinostat + Tozasertib; first compound 0.6325 µM): 0.162
relative viability (Entinostat + Tozasertib; first compound 2 µM): 0.132

NCI-H1975
relative viability ([1]; first compound 0.02 µM): 0.315
relative viability ([1]; first compound 0.06325 µM): 0.362
relative viability ([1]; first compound 0.2 µM): 0.307
relative viability ([1]; first compound 0.6325 µM): 0.348
relative viability ([1]; first compound 2 µM): 0.31
relative viability ([2]; first compound 0.02 µM): 0.728
relative viability ([2]; first compound 0.06325 µM): 0.708
relative viability ([2]; first compound 0.2 µM): 0.5
relative viability ([2]; first compound 0.6325 µM): 0.388
relative viability ([2]; first compound 2 µM): 0.353
relative viability (Entinostat + Linsitinib; first compound 0.02 µM): 0.791
relative viability (Entinostat + Linsitinib; first compound 0.06325 µM): 0.755
relative viability (Entinostat + Linsitinib; first compound 0.2 µM): 0.692
relative viability (Entinostat + Linsitinib; first compound 0.6325 µM): 0.302
relative viability (Entinostat + Linsitinib; first compound 2 µM): 0.27
relative viability (Entinostat + Tozasertib; first compound 0.02 µM): 0.516
relative viability (Entinostat + Tozasertib; first compound 0.06325 µM): 0.352
relative viability (Entinostat + Tozasertib; first compound 0.2 µM): 0.249
relative viability (Entinostat + Tozasertib; first compound 0.6325 µM): 0.122
relative viability (Entinostat + Tozasertib; first compound 2 µM): 0.115
